For assay [1], the target named is [35S]-TBPS binding, rat brain cortical membranes (GABA receptor complex). Kind of assay: Steroid inhibition of [35S]-TBPS binding. The note with it: 3 nM [35S]-TBPS, 5 μM GABA.
A further assay concerns the target T1, GABAA receptor α4β3δ (Homo sapiens, UniProt P28472+P48169).
T1 construct: expressed in transfected cells; host or cells: CHO cells (transient, lipofection)
Description: Patch clamp electrophysiology, manual patch in CHO cells. It is filed as cell-based. The conditions noted are these: 10 μM test article, GABA EC20 2 μM, read-out: GABA (α4β3δ) Manual patch in CHO, % efficacy at 10 μM. The protocol:
Patch Clamp Electrophysiology of Recombinant α1β2γ2 and α4β3δ GABAA Receptors
Cellular electrophysiology is used to measure the pharmacological properties of our GABAA receptor modulators in heterologous cell systems. Each compound is tested for its ability to affect GABA mediated currents at a submaximal agonist dose (GABA EC20=2 μM). LTK cells are stably transfected with the α1β2γ2 subunits of the GABA receptor and CHO cells are transiently transfected with the α4β3δ subunits via the Lipofecatamine method. Cells were passaged at a confluence of about 50-80% and then seeded onto 35 mm sterile culture dishes containing 2 ml culture complete medium without antibiotics or antimycotics. Confluent clusters of cells are electrically coupled (Pritchett et al., Science, 1988, 242, 1306-1308.). Because responses in distant cells are not adequately voltage clamped and because of uncertainties about the extent of coupling (Verdoorn et al., Neuron 1990, 4, 919-928.), cells were cultivated at a density that enables the recording of single cells (without visible connections to other cells).
Whole cell currents were measured with HEKA EPC-10 amplifiers using PatchMaster software or by using the high throughput QPatch platform (Sophion). Bath solution for all experiments contained (in mM): NaCl 137 mM, KCl 4 mM, CaCl2 1.8 mM, MgCl2 1 mM, HEPES 10 mM, D-Glucose 10 mM, pH (NaOH) 7.4. In some cases 0.005% cremophor was also added. Intracellular (pipette) solution contained: KCl 130 mM, MgCl2 1 mM, Mg-ATP 5 mM, HEPES 10 mM, EGTA 5 mM, pH 7.2. During experiments, cells and solutions were maintained at room temperature (19° C.-30° C.). For manual patch clamp recordings, cell culture dishes were placed on the dish holder of the microscope and continuously perfused (1 ml/min) with bath solution. After formation of a Gigaohm seal between the patch electrodes and the cell (pipette resistance range: 2.5 MΩ-6.0 MΩ; seal resistance range: >1 GΩ) the cell membrane across the pipette tip was ruptured to assure electrical access to the cell interior (whole-cell patch-configuration). For experiments using the QPatch system, cells were transferred as suspension to the QPatch system in the bath solution and automated whole cell recordings were performed.
Cells were voltage clamped at a holding potential of −80 mV. For the analysis of test articles, GABA receptors were stimulated by 2 μM GABA after sequential pre-incubation of increasing concentrations of the test article. Pre-incubation duration was 30 s and the duration of the GABA stimulus was 2 s. Test articles were dissolved in DMSO to form stock solutions (10 mM). Test articles were diluted to 0.01, 0.1, 1, and 10 μM in bath solution. All concentrations of test articles were tested on each cell. The relative percentage potentiation was defined as the peak amplitude in response to GABA EC20 in the presence of the test article divided by the peak amplitude in response to GABA EC20 alone, multiplied by 100.
(In general: The patch-clamp technique gives a direct electrical read-out from membranes.)

The target of a further assay is T2, GABAA receptor α1β2γ2 (Homo sapiens, UniProt P14867+P47870).
T2 construct: expressed in transfected cells
T2 sequence (P14867 28-456): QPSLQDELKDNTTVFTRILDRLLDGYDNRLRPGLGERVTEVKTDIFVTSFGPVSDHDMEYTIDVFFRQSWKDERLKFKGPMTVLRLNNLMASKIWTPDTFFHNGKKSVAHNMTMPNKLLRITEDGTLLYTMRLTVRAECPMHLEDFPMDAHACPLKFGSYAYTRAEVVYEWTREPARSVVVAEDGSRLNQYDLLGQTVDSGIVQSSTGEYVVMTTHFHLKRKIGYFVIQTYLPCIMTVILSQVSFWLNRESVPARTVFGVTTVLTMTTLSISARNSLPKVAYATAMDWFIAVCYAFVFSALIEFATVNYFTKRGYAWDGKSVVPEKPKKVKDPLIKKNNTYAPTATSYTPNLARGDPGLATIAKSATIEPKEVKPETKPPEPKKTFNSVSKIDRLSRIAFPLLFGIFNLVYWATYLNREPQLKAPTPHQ
T2 sequence (P47870 25-512 limits assumed): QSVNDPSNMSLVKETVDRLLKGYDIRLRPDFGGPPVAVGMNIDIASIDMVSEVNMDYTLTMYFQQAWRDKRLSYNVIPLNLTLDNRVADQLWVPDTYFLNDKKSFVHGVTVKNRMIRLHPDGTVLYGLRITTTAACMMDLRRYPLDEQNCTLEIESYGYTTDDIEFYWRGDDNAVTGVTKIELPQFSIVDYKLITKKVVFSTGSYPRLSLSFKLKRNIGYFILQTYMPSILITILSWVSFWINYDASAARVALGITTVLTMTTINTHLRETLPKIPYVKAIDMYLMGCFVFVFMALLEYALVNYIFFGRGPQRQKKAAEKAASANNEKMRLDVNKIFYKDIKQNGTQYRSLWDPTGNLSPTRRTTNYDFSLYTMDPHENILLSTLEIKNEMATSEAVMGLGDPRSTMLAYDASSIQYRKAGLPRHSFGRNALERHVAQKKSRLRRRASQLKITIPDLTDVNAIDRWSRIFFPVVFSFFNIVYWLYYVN
T2 sequence (P18507 40-475 partner): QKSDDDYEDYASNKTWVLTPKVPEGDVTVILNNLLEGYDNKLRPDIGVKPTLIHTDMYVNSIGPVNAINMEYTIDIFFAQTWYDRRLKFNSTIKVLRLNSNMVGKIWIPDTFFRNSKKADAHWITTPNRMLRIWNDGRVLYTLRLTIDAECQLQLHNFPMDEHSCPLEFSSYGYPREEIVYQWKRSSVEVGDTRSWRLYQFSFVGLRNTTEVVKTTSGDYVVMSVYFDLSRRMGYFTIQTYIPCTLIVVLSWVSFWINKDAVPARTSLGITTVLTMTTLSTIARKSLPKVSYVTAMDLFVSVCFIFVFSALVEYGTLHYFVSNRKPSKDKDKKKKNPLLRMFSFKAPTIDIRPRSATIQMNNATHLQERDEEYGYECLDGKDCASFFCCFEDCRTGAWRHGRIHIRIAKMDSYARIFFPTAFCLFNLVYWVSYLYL
Description: Patch clamp electrophysiology, Qpatch in Ltk cells. The assay is classed as cell-based. The note with it: 10 μM test article, GABA EC20 2 μM, read-out: GABA (α1β2γ2) Qpatch in Ltk, % efficacy at 10 μM. In outline:
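Whole-cell voltage clamp at −80 mV, room temperature: α1β2γ2 stably expressed in Ltk cells (QPatch), α4β3δ transiently in CHO cells (manual patch). Compound at 0.01–10 μM pre-applied 30 s, then 2 μM GABA (EC20) for 2 s. Potentiation = peak current with compound / GABA alone × 100.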

T1 sequence (P48169 36-554): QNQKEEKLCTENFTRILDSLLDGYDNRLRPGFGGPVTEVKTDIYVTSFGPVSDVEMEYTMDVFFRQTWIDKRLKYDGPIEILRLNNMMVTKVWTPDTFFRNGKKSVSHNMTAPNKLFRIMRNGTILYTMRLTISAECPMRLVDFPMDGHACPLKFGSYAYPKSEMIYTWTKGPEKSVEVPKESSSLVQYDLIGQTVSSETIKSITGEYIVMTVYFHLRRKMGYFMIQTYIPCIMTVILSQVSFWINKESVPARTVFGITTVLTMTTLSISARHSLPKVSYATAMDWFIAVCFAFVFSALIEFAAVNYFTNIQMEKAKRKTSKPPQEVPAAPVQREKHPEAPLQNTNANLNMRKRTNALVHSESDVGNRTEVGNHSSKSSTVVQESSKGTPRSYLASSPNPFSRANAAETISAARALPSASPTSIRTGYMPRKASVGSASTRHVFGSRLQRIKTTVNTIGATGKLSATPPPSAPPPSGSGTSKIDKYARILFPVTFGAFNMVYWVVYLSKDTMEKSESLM
T1 sequence (P28472 26-473): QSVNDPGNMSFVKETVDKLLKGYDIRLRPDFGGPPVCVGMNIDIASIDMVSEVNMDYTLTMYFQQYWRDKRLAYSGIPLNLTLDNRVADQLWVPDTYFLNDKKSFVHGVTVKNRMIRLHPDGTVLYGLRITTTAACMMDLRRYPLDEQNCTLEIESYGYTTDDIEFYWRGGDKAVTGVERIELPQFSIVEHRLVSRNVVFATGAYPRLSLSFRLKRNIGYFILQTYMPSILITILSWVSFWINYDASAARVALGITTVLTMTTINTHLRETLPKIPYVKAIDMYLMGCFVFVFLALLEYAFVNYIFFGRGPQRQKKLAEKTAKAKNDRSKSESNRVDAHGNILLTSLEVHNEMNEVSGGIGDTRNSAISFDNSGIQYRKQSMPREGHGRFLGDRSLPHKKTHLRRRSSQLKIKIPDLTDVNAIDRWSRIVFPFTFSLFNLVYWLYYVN
T1 sequence (O14764 25-452 partner): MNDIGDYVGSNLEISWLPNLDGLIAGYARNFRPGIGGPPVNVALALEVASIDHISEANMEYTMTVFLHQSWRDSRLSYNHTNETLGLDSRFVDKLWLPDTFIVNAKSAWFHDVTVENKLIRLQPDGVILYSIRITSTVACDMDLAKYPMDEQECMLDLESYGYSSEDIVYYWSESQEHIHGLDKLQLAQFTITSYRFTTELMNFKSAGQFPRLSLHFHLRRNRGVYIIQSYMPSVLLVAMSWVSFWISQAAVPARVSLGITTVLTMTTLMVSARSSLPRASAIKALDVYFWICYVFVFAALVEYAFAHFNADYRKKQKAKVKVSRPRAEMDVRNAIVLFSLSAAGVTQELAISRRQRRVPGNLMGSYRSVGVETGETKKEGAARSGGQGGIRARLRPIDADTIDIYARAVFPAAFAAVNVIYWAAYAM

For orientation: IC50 means the midpoint of a concentration-inhibition curve. The compound `C[C@@]1(O)CC[C@H]2[C@H](CC[C@@H]3[C@@H]2CC[C@]2(C)[C@@H](C(=O)Cn4cc(C#N)cn4)CC[C@@H]32)C1` [SA-4] displayed an IC50 in assay [1] of less than 0.01 µM. Moreover, the Emax at 10 µM at GABAA receptor α4β3δ and on GABAA receptor α1β2γ2 was 100 to 500% in each case.
Take `Cc1cnn(CC(=O)[C@H]2CC[C@H]3[C@@H]4CC[C@@H]5C[C@](C)(O)CC[C@@H]5[C@H]4CC[C@]23C)c1` [SA-6]: the IC50 in assay [1] lay in the range of 0.01 to 0.05 µM. Besides, the Emax at 10 µM is more than 500% at GABAA receptor α4β3δ and 100 to 500% on GABAA receptor α1β2γ2.
Consider `C[C@@]1(O)CC[C@H]2[C@H](CC[C@@H]3[C@@H]2CC[C@]2(C)[C@@H](C(=O)Cn4cccn4)CC[C@@H]32)C1` [SA-13], for which the IC50 in assay [1] fell in the range of 0.01 to 0.05 µM. For the same compound, the Emax at 10 µM at GABAA receptor α4β3δ was more than 500%; on GABAA receptor α1β2γ2, 100 to 500%.

Values taken from patent publication US12201640B2, “19-nor C3,3-disubstituted C21-n-pyrazolyl steroids and methods of use thereof” (Sage Therapeutics, Inc., priority 2013, dated 2025).
